Columns and labels:
[1] = test system: RPMI-8226; test: Growth inhibition of human RPMI8226 cells assessed as cell growth at 100 uM after 48 hrs by SRB assay relative to control; type: functional; details: RPMI-8226, 48 h, read-out: Activity
[2] = test system: BT-549; test: Growth inhibition of human BT549 cells assessed as cell growth at 100 uM after 48 hrs by SRB assay relative to control; type: functional; details: BT-549, 48 h, read-out: Activity
[3] = test system: HCT-15; test: Growth inhibition of human HCT15 cells assessed as cell growth at 100 uM after 48 hrs by SRB assay relative to control; type: functional; details: HCT-15, 48 h, read-out: Activity
[4] = test system: LOX IMVI; test: Growth inhibition of human LOXIMVI cells assessed as cell growth at 1 uM after 48 hrs by SRB assay relative to control; type: functional; details: read-out: Activity
[5] = test system: OVCAR-5; test: Growth inhibition of human OVCAR5 cells assessed as cell growth at 0.01 uM after 48 hrs by SRB assay relative to control; type: functional; details: OVCAR-5, 48 h, read-out: Activity
[6] = test system: EKVX; test: Growth inhibition of human EKVX cells assessed as cell growth at 10 uM after 48 hrs by SRB assay relative to control; type: functional; details: read-out: Activity
[7] = test system: CAKI-1; test: Growth inhibition of human Caki1 cells assessed as cell growth at 0.1 uM after 48 hrs by SRB assay relative to control; type: functional; details: CAKI-1, 48 h, read-out: Activity
[8] = test system: K562; test: Growth inhibition of human K562 cells assessed as cell growth at 0.01 uM after 48 hrs by SRB assay relative to control; type: functional; details: K562, 48 h, read-out: Activity
[9] = test system: OVCAR-4; test: Growth inhibition of human OVCAR4 cells assessed as cell growth at 0.01 uM after 48 hrs by SRB assay relative to control; type: functional; details: OVCAR-4, 48 h, read-out: Activity
[10] = test system: RXF 393; test: Growth inhibition of human RXF393 cells assessed as cell growth at 10 uM after 48 hrs by SRB assay relative to control; type: functional; details: RXF 393, 48 h, read-out: Activity
[11] = test system: K562; test: Growth inhibition of human K562 cells assessed as cell growth at 1 uM after 48 hrs by SRB assay relative to control; type: functional; details: K562, 48 h, read-out: Activity
[12] = test system: SK-OV-3; test: Growth inhibition of human SKOV3 cells assessed as cell growth at 100 uM after 48 hrs by SRB assay relative to control; type: functional; details: SK-OV-3, 48 h, read-out: Activity
[13] = test system: COLO 205; test: Antiproliferative activity against human COLO205 cells assessed as reduction in cell viability by MTT assay; type: functional, cell-based
[14] = test system: A498; test: Growth inhibition of human A498 cells assessed as cell growth at 1 uM after 48 hrs by SRB assay relative to control; type: functional; details: A498, 48 h, read-out: Activity
[15] = test system: SK-OV-3; test: Growth inhibition of human SKOV3 cells assessed as cell growth at 0.01 uM after 48 hrs by SRB assay relative to control; type: functional; details: SK-OV-3, 48 h, read-out: Activity
[16] = test system: UO-31; test: Growth inhibition of human UO31 cells assessed as cell growth at 10 uM after 48 hrs by SRB assay relative to control; type: functional; details: UO-31, 48 h, read-out: Activity
[17] = test system: NCI-H522; test: Cytotoxicity against human NCI-H522 cells assessed as growth inhibition after 48 hrs by SRB assay; type: functional; details: NCI-H522, 48 h
[18] = test system: HCT-15; test: Growth inhibition of human HCT15 cells assessed as cell growth at 0.1 uM after 48 hrs by SRB assay relative to control; type: functional; details: HCT-15, 48 h, read-out: Activity
[19] = test system: SK-MEL-28; test: Growth inhibition of human SK-MEL-28 cells assessed as cell growth at 0.01 uM after 48 hrs by SRB assay relative to control; type: functional; details: SK-MEL-28, 48 h, read-out: Activity
[20] = test system: HT-29; test: Cytotoxicity against human HT-29 cells assessed as growth inhibition after 48 hrs by SRB assay; type: functional; details: HT-29, 48 h
[21] = test system: M14; test: Growth inhibition of human M14 cells assessed as cell growth at 0.01 uM after 48 hrs by SRB assay relative to control; type: functional; details: M14, 48 h, read-out: Activity
[22] = test system: UO-31; test: Growth inhibition of human UO31 cells assessed as cell growth at 0.01 uM after 48 hrs by SRB assay relative to control; type: functional; details: UO-31, 48 h, read-out: Activity
[23] = test system: COLO 205; test: Growth inhibition of human COLO205 cells assessed as cell growth at 0.1 uM after 48 hrs by SRB assay relative to control; type: functional; details: COLO 205, 48 h, read-out: Activity
[24] = test system: SNB-19; test: Growth inhibition of human SNB19 cells assessed as cell growth at 0.1 uM after 48 hrs by SRB assay relative to control; type: functional; details: SNB-19, 48 h, read-out: Activity
[25] = test system: K562; test: Growth inhibition of human K562 cells assessed as cell growth at 100 uM after 48 hrs by SRB assay relative to control; type: functional; details: K562, 48 h, read-out: Activity
[26] = test system: SNB-75; test: Growth inhibition of human SNB75 cells assessed as cell growth at 100 uM after 48 hrs by SRB assay relative to control; type: functional; details: SNB-75, 48 h, read-out: Activity
[27] = test system: OVCAR-3; test: Growth inhibition of human OVCAR3 cells assessed as cell growth at 1 uM after 48 hrs by SRB assay relative to control; type: functional; details: OVCAR-3, 48 h, read-out: Activity
[28] = test system: NCI-H322M; test: Growth inhibition of human NCI-H322M cells assessed as cell growth at 10 uM after 48 hrs by SRB assay relative to control; type: functional; details: read-out: Activity
[29] = test system: ACHN; test: Growth inhibition of human ACHN cells assessed as cell growth at 0.01 uM after 48 hrs by SRB assay relative to control; type: functional; details: read-out: Activity
[30] = test system: HCT-116; test: Growth inhibition of human HCT116 cells assessed as cell growth at 100 uM after 48 hrs by SRB assay relative to control; type: functional; details: HCT-116, 48 h, read-out: Activity
[31] = test system: SK-MEL-5; test: Growth inhibition of human SK-MEL-5 cells assessed as cell growth at 100 uM after 48 hrs by SRB assay relative to control; type: functional; details: SK-MEL-5, 48 h, read-out: Activity
[32] = test system: Hs-578T; test: Growth inhibition of human Hs 578T cells assessed as cell growth at 10 uM after 48 hrs by SRB assay relative to control; type: functional; details: read-out: Activity
[33] = test system: CAKI-1; test: Growth inhibition of human Caki1 cells assessed as cell growth at 1 uM after 48 hrs by SRB assay relative to control; type: functional; details: CAKI-1, 48 h, read-out: Activity
[34] = test system: U-251; test: Growth inhibition of human U251 cells assessed as cell growth at 10 uM after 48 hrs by SRB assay relative to control; type: functional; details: U-251, 48 h, read-out: Activity
[35] = read-out: LC50 (the source's name)
[36] = read-out: pLC50 (the source's name) (converted)

**Q.** With COc1ccc2c(c1)CCc1n[nH]c(-c3cc(OC)c(OC)c(OC)c3)c1-2 as the molecule, how does the growth at 100 µM [1] read?
**A.** 15%

**Q.** What about the growth at 100 µM [2] of the same molecule?
**A.** -36%

**Q.** What about the growth at 100 µM [3] of the same molecule?
**A.** -41%

**Q.** And the growth at 1 µM [4]?
**A.** 18%

**Q.** And the growth at 0.01 µM [5]?
**A.** 56%

**Q.** And the growth at 10 µM [6]?
**A.** 37%

**Q.** And the growth at 0.1 µM [7]?
**A.** 23%

**Q.** What about the growth at 0.01 µM [8] of the same molecule?
**A.** 19%

**Q.** What about the growth at 0.01 µM [9] of the same molecule?
**A.** 41%

**Q.** What about the growth at 10 µM [10] of the same molecule?
**A.** -6%

**Q.** What about the growth at 1 µM [11] of the same molecule?
**A.** 18%

**Q.** And the growth at 100 µM [12]?
**A.** -50%

**Q.** And the IC50 [13]?
**A.** 0.007 µM

**Q.** What about the growth at 1 µM [14] of the same molecule?
**A.** -16%

**Q.** What about the growth at 0.01 µM [15] of the same molecule?
**A.** -1%

**Q.** And the growth at 10 µM [16]?
**A.** 13%

**Q.** What about the GI50 ([17]; read-out: GI50) of the same molecule?
**A.** < 0.01 µM

**Q.** What about the CC50 [17, 35] of the same molecule?
**A.** 46.9 µM

**Q.** And the TGI ([17]; read-out: TGI)?
**A.** < 0.01 µM

**Q.** What about the GI50 ([17]; read-out: pGI50 (converted)) of the same molecule?
**A.** < 0.01 µM

**Q.** And the CC50 [17, 36]?
**A.** 46.8 µM

**Q.** What about the TGI ([17]; read-out: pTGI) of the same molecule?
**A.** < 0.01 µM

**Q.** And the growth at 0.1 µM [18]?
**A.** 4%

**Q.** What about the growth at 0.01 µM [19] of the same molecule?
**A.** 53%

**Q.** And the GI50 ([20]; read-out: GI50)?
**A.** < 0.01 µM

**Q.** And the CC50 [20, 35]?
**A.** 49.9 µM

**Q.** And the TGI ([20]; read-out: TGI)?
**A.** 10.1 µM

**Q.** And the GI50 ([20]; read-out: pGI50 (converted))?
**A.** < 0.01 µM

**Q.** And the CC50 [20, 36]?
**A.** 50.1 µM

**Q.** And the TGI ([20]; read-out: pTGI (converted))?
**A.** 10 µM

**Q.** And the growth at 0.01 µM [21]?
**A.** 2%

**Q.** What about the growth at 0.01 µM [22] of the same molecule?
**A.** 42%

**Q.** What about the growth at 0.1 µM [23] of the same molecule?
**A.** -46%

**Q.** And the growth at 0.1 µM [24]?
**A.** 33%

**Q.** And the growth at 100 µM [25]?
**A.** 7%

**Q.** What about the growth at 100 µM [26] of the same molecule?
**A.** -30%

**Q.** And the growth at 1 µM [27]?
**A.** 17%

**Q.** And the growth at 10 µM [28]?
**A.** 31%

**Q.** And the growth at 0.01 µM [29]?
**A.** 30%

**Q.** And the growth at 100 µM [30]?
**A.** -66%

**Q.** What about the growth at 100 µM [31] of the same molecule?
**A.** -97%

**Q.** And the growth at 10 µM [32]?
**A.** 9%

**Q.** And the growth at 1 µM [33]?
**A.** 22%

**Q.** And the growth at 10 µM [34]?
**A.** 5%
